# Reference: article PMC12394750, “2H-1,4-Benzoxazin-3(4H)-one linked 1,2,3-triazole derivatives and their study on inducing DNA damage in tumor cells” (Frontiers in Pharmacology, 2025)
# Legend:
# [1] = system: Huh-7 (hepatocellular carcinoma); experiment: CCK-8 cell viability / IC50, Huh-7; type: cell-based, human; details: 72 h; for IC50 / viability at 50 µM: Homo sapiens, Huh-7; for IC50: CCK-8 dose-response; for Activity against Huh-7 cells (in words) / viability at 50 µM: 50 μM, CCK-8
# Protocol: (§1) To assess the cytotoxic potential of the newly synthesized compounds c1–c20, a panel of human tumor cell lines—including Huh-7 (hepatocellular carcinoma), MCF-7 (breast cancer), and A549 (lung cancer)—was treated with each compound at a concentration of 50 μM for 72 h. Cell viability and cytotoxicity were evaluated using the CCK-8 assay.
# (§2) Cells were cultured in DMEM or RPMI 1640 medium with 10% FBS and 1% penicillin/streptomycin at 37 °C and 5% CO2. A CCK-8 assay was performed with several human cancer cell lines, including A549, Huh-7, MCF-7, HCT-116, and SKOV3, according to the instructions. Cells were plated at a density of 1,000–3,000 cells per well in a 96-well plate. After 24-h incubation, cells were treated with 40 μM compounds for 48 h or 50 μM compounds for 72 h. Cell viability was measured by adding 10 μL per well of CCK-8 reagent, which was dissolved in the cell culture medium, for 1 hour. Absorbance was taken at 450 nm using a microplate reader. The IC50 values of the compounds were further determined. Cells were seeded in a 96-well plate at a density of 1 × 10^3 cells/well. After adhering overnight, cells treated with […] concentrations (10 μM, 20 μM, 40 µM, or 80 μM) were used to draw the dose–response curve, and IC50 values were calculated by GraphPad Prism software. The CCK-8 assay was performed in triplicate, and each experiment was repeated at least three times. The results were expressed as mean ± SEM, and P < 0.05 was considered statistically significant.
# Jurkat cells = system: Jurkat cells; set-up: method as in Pokhodylo et al., 2022; details: ref Pokhodylo et al., 2022; cited from earlier work
# [2] = system: HCT116 colon cancer cells; set-up: method as in Mohammed et al., 2022; details: ref Mohammed et al., 2022; read-out: Cytotoxicity against HCT116, IC50; cited from earlier work
# A549 lung cancer cells = system: A549 lung cancer cells; set-up: method as in Han et al., 2024; details: ref Han et al., 2024; cited from earlier work
# A549 cell = details: Tummatorn's team, no reference given; read-out: A549 cell proliferation, IC50; cited from earlier work
# EGFR = system: EGFR; set-up: method as in Sagam et al., 2024; details: ref Sagam et al., 2024; read-out: EGFR inhibitory activity, IC50; cited from earlier work
# A549 (lung cancer) = experiment: CCK-8 cell viability, A549; type: cell-based; details: Homo sapiens, 72 h
# Protocol: as §1, §2
# [3] = CCK-8 cell viability, L02; type: cell-based; details: human, L02 normal liver cells
# MCF-7 (breast cancer) = experiment: CCK-8 cell viability, MCF-7; type: cell-based; details: Homo sapiens, MCF7, 72 h
# Protocol: as §1, §2
structure (smiles),measurement,setting,value
"O=c1[nH]cc(F)c(=O)[nH]1 [5-fluorouracil, reference compound]",IC50,[1],21 ± 6.37 µM
Cc1c(C(=O)Nc2ccc(SC#N)cc2)nnn1-c1ccc(C(C)C)cc1 [compound 4a],DNA damage,Jurkat cells,induce DNA damage
same,Mitochondrial membrane potential,Jurkat cells,reduce mitochondrial membrane potential
COc1cc(/C=C/C(=O)c2ccc(-n3cc(CN4CCN(c5cc6c(cc5F)c(=O)c(C(=O)O)cn6C5CC5)CC4)nn3)cc2)cc(OC)c1OC [compound 4j],IC50,[2],2.53 µM
C#CCCC(=O)OC1CC2[C@@]3(C)CCC(OC(=O)CCc4cn(CC(=O)OC)nn4)C(C)(C)C3CC[C@@]2(C)[C@]2(C)CCC([C@](C)(O)CCCC(C)(C)OC)C12 (stereo partly shown) [compound 6a],Inhibitory activity against A549,A549 lung cancer cells,strong inhibitory activity
Fc1ccc2c(c1)C1=Nc3ccc(Br)cc3C1CN2Cc1cn(Cc2cccc(Cl)c2)nn1 (stereo not shown) [compound 11l],IC50,A549 cell,3.01 µM
O=C(Cn1nnc(CCN2C(=O)COc3ccccc32)n1)Nc1ccc(Cl)cc1 [compound 12g],IC50,EGFR,0.46 µM
"O=C1COc2cc(NC(=O)c3cccc(-c4cn(Cc5c(Cl)cccc5Cl)nn4)c3)ccc2N1 [compound c1, 3-(1-(2,6-dichlorobenzyl)-1H-1,2,3-triazol-4-yl)-N-(3-oxo-3,4-dihydro-2H-benzo[b][1,4]oxazin-7-yl)benzamide]",viability at 50 µM,A549 (lung cancer),97.4 ± 3.35%
same,Activity against Huh-7 cells (in words),[1],limited activity
same,viability at 50 µM,[1],83.49 ± 0.78%
same,"viability at 72 h, 50 µM",[3],84.1 ± 1.2%
same,viability at 50 µM,MCF-7 (breast cancer),110 ± 3.84%
"O=C1COc2cc(NC(=O)c3cccc(-c4cn(Cc5cccc(Cl)c5)nn4)c3)ccc2N1 [compound c2, 3-(1-(3-chlorobenzyl)-1H-1,2,3-triazol-4-yl)-N-(3-oxo-3,4-dihydro-2H-benzo[b][1,4]oxazin-7-yl)benzamide]",viability at 50 µM,A549 (lung cancer),95.6 ± 2.98%
same,viability at 50 µM,[1],17.5 ± 1.15%
same,IC50,[1],33.4 ± 0.8 µM
same,"viability at 72 h, 50 µM",[3],103 ± 2.36%
same,viability at 50 µM,MCF-7 (breast cancer),103 ± 1.63%
"O=C1COc2cc(NC(=O)c3cccc(-c4cn(Cc5ccccc5F)nn4)c3)ccc2N1 [compound c3, 3-(1-(2-fluorobenzyl)-1H-1,2,3-triazol-4-yl)-N-(3-oxo-3,4-dihydro-2H-benzo[b][1,4]oxazin-7-yl)benzamide]",viability at 50 µM,A549 (lung cancer),92.2 ± 3.87%
same,viability at 50 µM,[1],12.1 ± 0.58%
same,IC50,[1],43.41 ± 0.08 µM
same,"viability at 72 h, 50 µM",[3],101 ± 3.04%
same,viability at 50 µM,MCF-7 (breast cancer),108.3 ± 0.68%
"O=C1COc2cc(NC(=O)c3cccc(-c4cn(Cc5ccc(I)cc5)nn4)c3)ccc2N1 [compound c4, 3-(1-(4-iodobenzyl)-1H-1,2,3-triazol-4-yl)-N-(3-oxo-3,4-dihydro-2H-benzo[b][1,4]oxazin-7-yl)benzamide]",viability at 50 µM,A549 (lung cancer),94 ± 1.88%
same,viability at 50 µM,[1],21.4 ± 4.91%
same,IC50,[1],33.21 ± 0.11 µM
same,"viability at 72 h, 50 µM",[3],115.2 ± 0.81%
same,viability at 50 µM,MCF-7 (breast cancer),95.9 ± 2.14%
"Cc1cc(C)cc(Cn2cc(-c3cccc(C(=O)Nc4ccc5c(c4)OCC(=O)N5)c3)nn2)c1 [compound c6, 3-(1-(3,5-dimethylbenzyl)-1H-1,2,3-triazol-4-yl)-N-(3-oxo-3,4-dihydro-2H-benzo[b][1,4]oxazin-7-yl)benzamide]",viability at 50 µM,A549 (lung cancer),81.6 ± 5.09%
same,viability at 50 µM,[1],25.6 ± 1.32%
same,IC50,[1],> 50 µM
same,"viability at 72 h, 50 µM",[3],99.7 ± 2.5%
same,viability at 50 µM,MCF-7 (breast cancer),84.8 ± 3.5%
"N#Cc1ccccc1Cn1cc(-c2cccc(C(=O)Nc3ccc4c(c3)OCC(=O)N4)c2)nn1 [compound c7, 3-(1-(2-cyanobenzyl)-1H-1,2,3-triazol-4-yl)-N-(3-oxo-3,4-dihydro-2H-benzo[b][1,4]oxazin-7-yl)benzamide]",viability at 50 µM,A549 (lung cancer),87.7 ± 6.4%
same,Activity against Huh-7 cells (in words),[1],limited activity
same,viability at 50 µM,[1],89.1 ± 3.02%
same,"viability at 72 h, 50 µM",[3],101 ± 3.14%
same,viability at 50 µM,MCF-7 (breast cancer),89.2 ± 3.16%
"O=C1COc2cc(NC(=O)c3cccc(-c4cn(Cc5cccc(C(F)(F)F)c5)nn4)c3)ccc2N1 [compound c8, N-(3-oxo-3,4-dihydro-2H-benzo[b][1,4]oxazin-7-yl)-3-(1-(3-(trifluoromethyl)benzyl)-1H-1,2,3-triazol-4-yl)benzamide]",viability at 50 µM,A549 (lung cancer),86.1 ± 5.46%
same,viability at 50 µM,[1],13 ± 0.72%
same,IC50,[1],38.48 ± 0.24 µM
same,"viability at 72 h, 50 µM",[3],103 ± 3.1%
same,viability at 50 µM,MCF-7 (breast cancer),101 ± 4.5%
"O=C1COc2cc(NC(=O)c3cccc(-c4cn(Cc5ccc(F)c(Cl)c5)nn4)c3)ccc2N1 [compound c9, 3-(1-(3-chloro-4-fluorobenzyl)-1H-1,2,3-triazol-4-yl)-N-(3-oxo-3,4-dihydro-2H-benzo[b][1,4]oxazin-7-yl)benzamide]",viability at 50 µM,A549 (lung cancer),86.2 ± 4.4%
same,viability at 50 µM,[1],18.8 ± 0.56%
same,IC50,[1],43.1 ± 2.43 µM
same,"viability at 72 h, 50 µM",[3],103 ± 3.98%
same,viability at 50 µM,MCF-7 (breast cancer),110 ± 2.58%
"O=C1COc2cc(NC(=O)c3cccc(-c4cn(Cc5c(F)cccc5F)nn4)c3)ccc2N1 [compound c10, 3-(1-(2,6-difluorobenzyl)-1H-1,2,3-triazol-4-yl)-N-(3-oxo-3,4-dihydro-2H-benzo[b][1,4]oxazin-7-yl)benzamide]",viability at 50 µM,A549 (lung cancer),61.1 ± 3.58%
same,viability at 50 µM,[1],24.9 ± 0.39%
same,IC50,[1],> 50 µM
same,"viability at 72 h, 50 µM",[3],68.5 ± 2.04%
same,viability at 50 µM,MCF-7 (breast cancer),81.6 ± 1.46%
"N#Cc1ccc(F)cc1Cn1cc(-c2cccc(C(=O)Nc3ccc4c(c3)OCC(=O)N4)c2)nn1 [compound c11, 3-(1-(2-cyano-5-fluorobenzyl)-1H-1,2,3-triazol-4-yl)-N-(3-oxo-3,4-dihydro-2H-benzo[b][1,4]oxazin-7-yl)benzamide]",viability at 50 µM,A549 (lung cancer),85.4 ± 2.84%
same,Activity against Huh-7 cells (in words),[1],limited activity
same,viability at 50 µM,[1],98 ± 1.22%
same,"viability at 72 h, 50 µM",[3],111 ± 2.9%
same,viability at 50 µM,MCF-7 (breast cancer),92.96 ± 0.64%
"O=C1COc2cc(NC(=O)c3cccc(-c4cn(Cc5ccccc5Br)nn4)c3)ccc2N1 [compound c12, 3-(1-(2-bromobenzyl)-1H-1,2,3-triazol-4-yl)-N-(3-oxo-3,4-dihydro-2H-benzo[b][1,4]oxazin-7-yl)benzamide]",viability at 50 µM,A549 (lung cancer),87.7 ± 3.88%
same,Activity against Huh-7 cells (in words),[1],limited activity
same,viability at 50 µM,[1],86.1 ± 1.69%
same,"viability at 72 h, 50 µM",[3],105 ± 2.71%
same,viability at 50 µM,MCF-7 (breast cancer),87.15 ± 0.55%
"O=C1COc2cc(NC(=O)c3cccc(-c4cn(Cc5ccc(Br)cc5F)nn4)c3)ccc2N1 [compound c13, 3-(1-(4-bromo-2-fluorobenzyl)-1H-1,2,3-triazol-4-yl)-N-(3-oxo-3,4-dihydro-2H-benzo[b][1,4]oxazin-7-yl)benzamide]",viability at 50 µM,A549 (lung cancer),78.3 ± 2.72%
same,viability at 50 µM,[1],17.7 ± 1.58%
same,IC50,[1],> 50 µM
same,"viability at 72 h, 50 µM",[3],115 ± 1.35%
same,viability at 50 µM,MCF-7 (breast cancer),98.9 ± 2.03%
"O=C1COc2cc(NC(=O)c3cccc(-c4cn(Cc5c(F)cccc5Cl)nn4)c3)ccc2N1 [compound c15, 3-(1-(2-chloro-6-fluorobenzyl)-1H-1,2,3-triazol-4-yl)-N-(3-oxo-3,4-dihydro-2H-benzo[b][1,4]oxazin-7-yl)benzamide]",viability at 50 µM,A549 (lung cancer),86.5 ± 2.25%
same,Activity against Huh-7 cells (in words),[1],limited activity
same,viability at 50 µM,[1],75.8 ± 2.97%
same,"viability at 72 h, 50 µM",[3],113.7 ± 1.08%
same,viability at 50 µM,MCF-7 (breast cancer),84.6 ± 1.32%
"O=C1COc2cc(NC(=O)c3cccc(-c4cn(Cc5cccc(Br)c5)nn4)c3)ccc2N1 [compound c17, 3-(1-(3-bromobenzyl)-1H-1,2,3-triazol-4-yl)-N-(3-oxo-3,4-dihydro-2H-benzo[b][1,4]oxazin-7-yl)benzamide]",viability at 50 µM,A549 (lung cancer),71.3 ± 2.9%
same,viability at 50 µM,[1],19.2 ± 1.88%
same,IC50,[1],35.1 ± 1.84 µM
same,"viability at 72 h, 50 µM",[3],111.7 ± 0.92%
same,viability at 50 µM,MCF-7 (breast cancer),90.41 ± 0.51%
"O=C1COc2cc(NC(=O)c3cccc(-c4cn(Cc5cccc(I)c5)nn4)c3)ccc2N1 [compound c19, 3-(1-(3-iodobenzyl)-1H-1,2,3-triazol-4-yl)-N-(3-oxo-3,4-dihydro-2H-benzo[b][1,4]oxazin-7-yl)benzamide]",viability at 50 µM,A549 (lung cancer),80.5 ± 3.81%
same,viability at 50 µM,[1],28.5 ± 3.64%
same,IC50,[1],36.19 ± 0.09 µM
same,"viability at 72 h, 50 µM",[3],103.4 ± 0.62%
same,viability at 50 µM,MCF-7 (breast cancer),97.2 ± 2.06%
"Cc1ccccc1Cn1cc(-c2cccc(C(=O)Nc3ccc4c(c3)OCC(=O)N4)c2)nn1 [compound c20, 3-(1-(2-methylbenzyl)-1H-1,2,3-triazol-4-yl)-N-(3-oxo-3,4-dihydro-2H-benzo[b][1,4]oxazin-7-yl)benzamide]",viability at 50 µM,A549 (lung cancer),97.85 ± 0.92%
same,viability at 50 µM,[1],23.6 ± 0.25%
same,IC50,[1],45.9 ± 0.5 µM
same,"viability at 72 h, 50 µM",[3],119.1 ± 0.57%
same,viability at 50 µM,MCF-7 (breast cancer),112 ± 4.59%
COc1cccc2c1C(=O)c1c(O)c3c(c(O)c1C2=O)C[C@@](O)(C(=O)CO)C[C@@H]3O[C@H]1C[C@H](N)[C@H](O)[C@H](C)O1 [doxorubicin],IC50,[2],1.22 µM
